Measured values published in ChEMBL document CHEMBL3132810, “Novel benzofuranchromone and coumarin derivatives: synthesis and biological activity in K562 human leukemia cells” (Medchemcomm, 2013).
Active and inactive are the calls of the source. The calls are words filed in the database; no cut-off is given here.

Key:
K562 [1] = experiment: Anticancer activity against human K562 cells assessed as growth inhibition; assay type: functional, cell-based
K562 [2] = experiment: Induction of apoptosis in human K562 cells at 50 uM after 48 hrs; assay type: functional
K562 [3] = experiment: Cell cycle arrest in human K562 cells assessed as slight accumulation at G1 phase at 50 uM after 48 hrs by propidium iodide staining-based FACS -Calibur flow cytometry; assay type: functional
K562 [4] = experiment: Induction of apoptosis in human K562 cells at 100 uM after 72 hrs; assay type: functional, cell-based
K562 [5] = experiment: Induction of apoptosis in human K562 cells at 50 uM after 72 hrs; assay type: functional, cell-based
K562 [6] = experiment: Cell cycle arrest in human K562 cells assessed as accumulation at S phase at 50 uM after 48 hrs by propidium iodide staining-based FACS -Calibur flow cytometry; assay type: functional
K562 [7] = experiment: Cell cycle arrest in human K562 cells assessed as accumulation at G2 phase at 50 uM after 48 hrs by propidium iodide staining-based FACS -Calibur flow cytometry; assay type: functional

Row | SMILES | Activity (K562 [2]) | Activity (K562 [6]) | further results
1 | COc1ccc(/C=C2\Oc3c(cc(OC)c(OC)c3OC)C2=O)cc1O | – | – | IC50 (K562 [1]): 50 µM
2 | COc1ccc2c(=O)c(/C=C3\Oc4ccccc4C3=O)coc2c1 | 17% | – | –
3 | Cc1cc2occ(/C=C3\Oc4cc5ccccc5cc4C3=O)c(=O)c2cc1C | 17% | – | Activity (K562 [3]): Active
4 | COc1ccc(-c2cc(=O)c3cc(OC)c(OC)c(OC)c3o2)cc1O | – | – | IC50 (K562 [1]): 40 µM
5 | O=C1/C(=C/c2coc3ccc(Cl)cc3c2=O)Oc2cc3ccccc3cc21 | 17% | – | –
6 | COc1ccc2c(C=O)cc(=O)oc2c1 | – | – | Activity (K562 [4]): Active; Activity (K562 [5]): Active
7 | Cc1ccc2c(c1)O/C(=C\c1coc3ccc(Cl)cc3c1=O)C2=O | – | Active | –
8 | Cc1ccc2c(c1)O/C(=C\c1coc3cc(Cl)ccc3c1=O)C2=O | – | Active | –
9 | O=C1/C(=C/c2coc3ccccc3c2=O)Oc2cc3ccccc3cc21 | 17% | – | –
10 | COc1ccc2c(/C=C3\Oc4cc(C)ccc4C3=O)cc(=O)oc2c1 | 24% | – | Activity (K562 [4]): Active; Activity (K562 [5]): Active; Activity (K562 [3]): Active
11 | O=C1/C(=C/c2coc3ccc(Cl)cc3c2=O)Oc2ccccc21 | – | 63% | –
12 | Cc1ccc2c(c1)O/C(=C\c1coc3ccc(F)cc3c1=O)C2=O | – | Active | –
13 | O=C1/C(=C/c2coc3ccc(F)cc3c2=O)Oc2ccccc21 | – | Active | –
14 | Cc1ccc2occ(/C=C3\Oc4ccccc4C3=O)c(=O)c2c1 | – | Active | –
15 | Cc1ccc2c(c1)O/C(=C\c1coc3ccccc3c1=O)C2=O | – | Active | –
16 | COc1ccc(/C=C2\Oc3cc(C)ccc3C2=O)cc1 | – | – | Activity (K562 [4]): Active; Activity (K562 [5]): Active
17 | COc1ccc2c(/C=C3\Oc4cc5ccccc5cc4C3=O)cc(=O)oc2c1 | 24% | – | Activity (K562 [7]): 46%
18 | Cc1ccc2c(c1)O/C(=C\c1coc3ccc(C)cc3c1=O)C2=O | 24% | – | Activity (K562 [3]): 72%
19 | COc1cccc2occ(/C=C3\Oc4cc5ccccc5cc4C3=O)c(=O)c12 | 17% | – | Activity (K562 [3]): Active
20 | O=C1/C(=C/c2coc3ccccc3c2=O)Oc2ccccc21 | 17% | – | –
